How the values were obtained:
[1] = Oxidation stability after gamma irradiation and aging, by FTIR oxidation index; assay type: physicochemical; settings: 0.5 weight % in UHMWPE
Description: UHMWPE GUR 1050 (Ticona Inc, Bayport, Tex., USA) in powder form was mixed with 0.5 weight % of Lipoic Acid in powder form (Talamonti, Italy, stock n. 1050919074). The mixture was then moulded in a cell at 160° C. and at a pressure of 200 MPa.
A comparative sample was made with the same UHMWPE GUR 1050 only, namely without mixing it with lipoic acid.
Each sample of UHMWPE, virgin and doped with lipoic acid, was gamma irradiated to a dose of 30 kGy (Isomedix, Northborough, Mass.), then was processed into cylindrical pins of 20 mm length and 9 mm diameter.
Each sample, virgin and doped, was then aged at 80° C. in a convection oven for 5 weeks, in air (ASTM standard F2003-02). After aging and oxidation, thin sections of […] thickness of each sample were prepared using a Leitz Wetzlar Sledge Microtome (Leica, Nussloch, Germany). The irradiated and aged sections of cylindrical pins samples were then analysed by means of Fourier Transform Infrared Spectroscopy (FTIR). The IR analysis was performed using a Nicolet Magna 860 spectrometer.
The effect of aging on the oxidation of virgin UHMWPE and UHMWPE doped with lipoic acid is shown in FIG. 2 and FIG. 3, respectively. An oxidation index OI was defined as the ratio of the area under 1740 cm^−1 carbonyl and 1370 cm^−1 methylene absorbance peaks.

[2] = Thermal stability of Lipoic Acid inside UHMWPE, by FTIR spectra; assay type: physicochemical; settings: UHMWPE with 0.5% wt lipoic acid heated at 150° C. for 2 hours or 200° C. for 24 hours
Description: UHMWPE GUR 1050 (Ticona Inc, Bayport, Tex., USA) in powder form was mixed with 0.5 weight % of Lipoic Acid in powder form (Talamonti, Italy, stock n. 1050919074). The mixture was then moulded in a cell at 160° C. and at a pressure of 200 MPa. The purpose of these examples was to investigate the presence and stability of Lipoic Acid inside UHMWPE with which it was pre-mixed. UHMWPE commonly melts at 138° C., but Lipoic Acid melts at about 65° C. Therefore, to check the Lipoic Acid stability into the UHMWPE at high temperatures a Lipoic Acid-doped UHMWPE was tested at 150° C. and 200° C. […] Line B represents the spectrum of UHMWPE doped with LA, heated at 150° C. for 2 hours, then cooled at room temperature, in which the spectrum of pure UHMWPE was detracted as baseline.

[3] = cited from earlier work

stability of Lipoic Acid (FTIR spectrum) [2]: substantially unchanged | stability of Lipoic Acid (FTIR spectrum) ([2]; listed as lipoic acid): stable
SMILES: O=C(O)CCCCC1CCSS1 (centres unmarked) [Lipoic Acid, Lipoic acid]
antioxidant effectiveness in UHMWPE [1]: effective as antioxidant | toxicity on human beings ([3]; 100 to 600 mg/day for 3 to 6 months): low toxicity | side effects ([3]; dose of 50 mg/day): no side effect reported

— patent publication US7989518B2, “Synthetic biocompatible material having an improved oxidation resistance, process for preparing the same and prosthetic articles obtained therefrom” (priority 2006, dated 2011)
